Experimental data from US20100222332A1, “PYRAZOLO-PYRAZINES DERIVATIVES USED AS G PROTEIN INHIBITORS” (Ipsen Pharma S.A.S., priority 2007, published 2010).

Compound | melting point
CC(C)(C)OC(=O)N[C@@H](CSSC[C@H](NC(=O)OC(C)(C)C)C(=O)N1CCn2nc(-c3ccccc3)cc2C1CC1CCCCC1)C(=O)N1CCn2nc(-c3ccccc3)cc2C1CC1CCCCC1 (mixture of isomers) [Example 1, tert-butyl {(1R)-1-[({(2R)-2-[(tert-butoxycarbonyl)amino]-3-[(4RS)-4-(cyclohexylmethyl)-2-phenyl-6,7-dihydropyrazolo[1,5-a]pyrazin-5(4H)-yl]-3-oxopropyl}dithio)methyl]-2-[(4RS)-4-(cyclohexylmethyl)-2-phenyl-6,7-dihydropyrazolo[1,5-a]pyrazin-5(4H)-yl]-2-oxoethyl}carbamate] | 129 to 132 °C
CC(C)(C)OC(=O)N[C@@H](CSSC[C@H](NC(=O)OC(C)(C)C)C(=O)N1CCn2nc(-c3ccccc3)cc2C1CCc1ccccc1)C(=O)N1CCn2nc(-c3ccccc3)cc2C1CCc1ccccc1 (mixture of isomers) [Example 2, tert-butyl {(1R)-1-[({(2R)-2-[(tert-butoxycarbonyl)amino]-3-oxo-3-[(4RS)-2-phenyl-4-(2-phenylethyl)-6,7-dihydropyrazolo[1,5-a]pyrazin-5(4H)-yl]propyl}dithio)methyl]-2-oxo-2-[(4RS)-2-phenyl-4-(2-phenylethyl)-6,7-dihydropyrazolo[1,5-a]pyrazin-5(4H)-yl]ethyl}carbamate] | 123 to 127 °C
CC(C)(C)OC(=O)N[C@@H](CSSC[C@H](NC(=O)OC(C)(C)C)C(=O)N1CCn2nc(-c3ccncc3)cc2C1CCc1ccccc1)C(=O)N1CCn2nc(-c3ccncc3)cc2C1CCc1ccccc1 (mixture of isomers) [Example 3, tert-butyl {(1R)-1-[({(2R)-2-[(tert-butoxycarbonyl)amino]-3-oxo-3-[(4RS)-4-(2-phenylethyl)-2-pyridin-4-yl-6,7-dihydropyrazolo[1,5-a]pyrazin-5(4H)-yl]propyl}dithio)methyl]-2-oxo-2-[(4RS)-4-(2-phenylethyl)-2-pyridin-4-yl-6,7-dihydropyrazolo[1,5-a]pyrazin-5(4H)-yl]ethyl}carbamate] | 149 to 152 °C
CC(C)(C)OC(=O)N[C@@H](CSSC[C@H](NC(=O)OC(C)(C)C)C(=O)N1CCn2nc(-c3cccnc3)cc2C1CCc1ccccc1)C(=O)N1CCn2nc(-c3cccnc3)cc2C1CCc1ccccc1 (mixture of isomers) [Example 4, tert-butyl {(1R)-1-[({(2R)-2-[(tert-butoxycarbonyl)amino]-3-oxo-3-[(4RS)-4-(2-phenylethyl)-2-pyridin-3-yl-6,7-dihydropyrazolo[1,5-a]pyrazin-5(4H)-yl]propyl}dithio)methyl]-2-oxo-2-[(4RS)-4-(2-phenylethyl)-2-pyridin-3-yl-6,7-dihydropyrazolo[1,5-a]pyrazin-5(4H)-yl]ethyl}carbamate] | 115 to 130 °C
COc1cc(-c2cc3n(n2)CCN(C(=O)[C@H](CSSC[C@H](NC(=O)OC(C)(C)C)C(=O)N2CCn4nc(-c5cc(OC)c(OC)c(OC)c5)cc4C2CCc2ccccc2)NC(=O)OC(C)(C)C)C3CCc2ccccc2)cc(OC)c1OC (mixture of isomers) [Example 6, tert-butyl {(1R)-1-[({(2R)-2-[(tert-butoxycarbonyl)amino]-3-oxo-3-[(4RS)-4-(2-phenylethyl)-2-(3,4,5-trimethoxyphenyl)-6,7-dihydropyrazolo[1,5-a]pyrazin-5(4H)-yl]propyl}dithio)methyl]-2-oxo-2-[(4RS)-4-(2-phenylethyl)-2-(3,4,5-trimethoxyphenyl)-6,7-dihydropyrazolo[1,5-a]pyrazin-5(4H)-yl]ethyl}carbamate] | 130 to 136 °C
CC(C)(C)OC(=O)N[C@@H](CSSC[C@H](NC(=O)OC(C)(C)C)C(=O)N1CCn2nc(-c3cccs3)cc2C1CCc1ccccc1)C(=O)N1CCn2nc(-c3cccs3)cc2C1CCc1ccccc1 (mixture of isomers) [Example 7, tert-butyl {(1R)-1-[({(2R)-2-[(tert-butoxycarbonyl)amino]-3-oxo-3-[(4RS)-4-(2-phenylethyl)-2-(2-thienyl)-6,7-dihydropyrazolo[1,5-a]pyrazin-5(4H)-yl]propyl}dithio)methyl]-2-oxo-2-[(4RS)-4-(2-phenylethyl)-2-(2-thienyl)-6,7-dihydropyrazolo[1,5-a]pyrazin-5(4H)-yl]ethyl}carbamate] | 105 to 112 °C
